The record followed here is patent US20070191330A1, “Polyhydroxylated aromatic compounds for the treatment of amyloidosis and alpha-synuclein fibril diseases” (Proteotech, Inc., priority 1999, published 2007).

Read-outs that look alike come from different tables or passages of the source.

Common to all, as to format: biochemical
Test [1] has as its target T1, Alzheimer's Aβ 1-42 amyloid fibrils (Homo sapiens, UniProt P05067).
T1 construct: 1 mg of Aβ 1-42 (Bachem Inc., Torrance, Calif., USA) was dissolved; purchased Bachem Inc., Torrance, Calif., USA
The test is described as follows: Disassembly/disruption of pre-formed Aβ 1-42 fibrils, Thioflavin T fluorometry. The conditions noted are these: for inhibition at 100 µg/mL: read-out: Fluorescence inhibition, %, at the Aβ 1-42:compound w/w ratio 1:1. Here is the method: For the first study, 1 mg of Aβ 1-42 (Bachem Inc., Torrance, Calif., USA) was dissolved in 1.0 ml of double distilled water (1 mg/ml solution). 25 μM of Aβ 1-42 was then incubated overnight (˜18 hours) at 37° C., in the absence or presence of 100 μg/ml of the following compounds: 1) EDTA (Sigma Chemical Company, St. Louis, Mo., USA), 2) myricetin (Acros, Somerville, N.J., USA), 3) exifone (Acros) 4) pyrogallol (Sigma), 5) tannic acid (Acros), 6) pyrocatechol (Acros), 7) quercetin (Sigma), 8) ellagic acid (Acros), 9) 1,2,4-benzenetriol (Acros), 10) 5-hydroxydopamine (Acros), 11) gallamide hydrate (Acros), 12) gallic acid (Sigma), 13) ethyl gallate (Acros), 14) quinic acid (Acros), 15) propyl gallate (Sigma), and 16) phloroglucide (Acros), each in the presence of 150 mM Tris HCl, 10 mM NaCl (pH 7.0) with 0.02% sodium azide. In this study, the A 1-42:compound weight ratio was 1:1. […]
Thioflavin T is known to bind to fibrillar amyloid proteins, and an increase in fluorescence correlates with an increase in amyloid fibril formation, whereas a decrease in fluorescence correlates with a decrease in amyloid fibrils due to disassembly and/or disruption. The Alzheimer's Aβ protein (1-42) when placed in solution, such as distilled water, tends to spontaneously form amyloid fibrils. Using this sensitive assay, any decreases or increases in fluorescence was previously shown to correlate with a decrease or increase in the amount of amyloid fibrils (see the documents cited above), allowing one to identify and quantitate the extent of potential inhibitors and/or enhancers of Alzheimer's Aβ 1-42 amyloid fibrils.
To assess the effects of each compound on potential disassembly/disruption of preformed Aβ 1-42 fibrils, 50 μl of Aβ 1-42 with or without test compounds (described above) were added to 1.2 ml of 100 μM Thioflavin T (Sigma) in 50 mM NaH2PO4 (pH 6.0) for fluorometry readings. […] Fluorescence emission at 482 nm was measured on a Turner instrument-model 450 fluorometer at an excitation wavelength of 450 nm. For each determination, the fluorometer was calibrated by zeroing in the presence of the Thioflavin T reagent alone, and by setting the 50 ng/ml riboflavin (Sigma Chemical Co., St. Louis, Mo.) in the Thioflavin T reagent to 1800 fluorescence units. All fluorescence determinations were based on these references and any fluorescence given off by any of the compounds in the presence of the Thioflavin T reagent was always subtracted from all pertinent readings.
For all fibrillogenesis studies utilizing Thioflavin T fluorometry, as disclosed herein, comparisons of amyloid protein in the presence or absence of test compounds were based on paired Student's t tests with data shown as the mean of triplicate measurements±standard deviation.

In a further test the target is T2, human amylin fibrils (Homo sapiens, UniProt P10997).
T2 construct: This amyloid protein involved consists of a 37 amino acid protein known as islet amyloid polypeptide or amylin; purchased Bachem
T2 sequence (P10997 34-70 limits assumed): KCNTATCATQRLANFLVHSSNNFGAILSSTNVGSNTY
Nature of the test: Congo red staining of amylin fibrils on slides. Particulars: overnight incubation of amylin with compound, compared with amylin alone. The procedure: Following Thioflavin T fluorometry readings as described in Example 1, 5 μl aliquots of amylin only, amylin+myricetin, amylin+exifone, and amylin+tannic acid were also taken, allowed to air dry overnight on gelatin-coated slides, and stained with Congo red as previously described (Castillo et al., Diabetes 47:612-620, 1998).

The target in the next test is T3, Aβ 1-40 amyloid fibrils (Homo sapiens, UniProt P05067).
T3 construct: 1 mg of Aβ 1-40 (Bachem Inc., Torrance, Calif., USA; Lot # T-20824) was dissolved; purchased Bachem Inc., Torrance, Calif., USA
The test is described as follows: Dose-dependent disaggregation of fibrillized Aβ 1-40, Congo red-Aβ spectrophotometric assay. The conditions noted are these: w/w 1:1, 100 μg/ml compound, 25 μM Aβ 1-40, overnight (~18 hours) at 37° C. Here is the method: In this study, a Congo red-Aβ spectrophotometric assay (Klunk et al., Anal. Biochem. 266:66-76, 1999) was modified to determine the effectiveness of polyhydroxylated aromatic compounds on the disaggregation of pre-formed Aβ 1-40 amyloid fibrils. For this assay, 1 mg of Aβ 1-40 (Bachem) was incubated for 4 days in distilled water at 37° C. to spontaneously produce amyloid fibrils. […] Following incubation, 50 μl of 360 μM Congo red (Sigma) in distilled water was then added to 250 μl of each incubation mixture, giving a final Aβ:Congo red molar ratio of 1:3. After 10 minutes, the absorbance at 405 nm (reference wavelength to account for the absorbance of Congo red alone at 540 nm) and 540 nm (sample absorbance where “sample” refers to Aβ alone, test compound alone, or Aβ plus test compound, all in the presence of Congo red) was determined using a Biorad Model 550 ELISA Plate Reader (Biorad, Hercules, Calif., USA). The absorbance at wavelength 405 nm was automatically subtracted by the ELISA plate reader from the absorbance at wavelength 540 nm (difference is referred to as A absorbance)(see Klunk et al. cited above). Therefore, the A absorbance reading at 540 nm was proportional to the amount of aggregated Aβ left in solution (Klunk et al.). […]
In this study, the potential dose-dependent effects of tannic acid and gallic acid on the disaggregation of fibrillized Aβ 1-40 was assessed. […]

The mark [2] stands for this setting: Aβ 1-42:compound w/w 1:1, 100 μg/ml compound, 25 μM Aβ 1-42, overnight (~18 hours) at 37° C., mean of triplicate ± SD.

T1 sequence (P05067 672-713): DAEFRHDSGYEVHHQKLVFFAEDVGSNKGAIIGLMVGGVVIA
T3 sequence (P05067 672-711): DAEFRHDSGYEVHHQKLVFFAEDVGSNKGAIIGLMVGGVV

On to `Oc1ccc(O)c(O)c1` [1,2,4-Benzenetriol, 1,2,4-benzenetriol], for which, in test [1] (setting [2]), the inhibition at 100 µg/mL stood at 71 ± 3.3%. As for `NCCc1cc(O)c(O)c(O)c1` [5-Hydroxydopamine, 5-hydroxydopamine], the inhibition at 100 µg/mL in test [1] (setting [2]) worked out at 70 ± 1.1%.

On to `O=C(O)CN(CCN(CC(=O)O)CC(=O)O)CC(=O)O` [EDTA, reference compound], for which the “Disassembly/disruption of Aβ 1-42 amyloid fibrils (result in words)” value in test [1] (100 μg/ml, 25 μM Aβ 1-42, overnight (~18 hours) at 37° C., Thioflavin T fluorometry) was “no significant disassembly/disruption”. For `O=c1oc2c(O)c(O)cc3c(=O)oc4c(O)c(O)cc1c4c23` [Ellagic acid, ellagic acid], the inhibition at 100 µg/mL in test [1] (setting [2]) amounted to 74 ± 1.4%. Still for that read-out and setting: as for `CCOC(=O)c1cc(O)c(O)c(O)c1` [Ethyl gallate, ethyl gallate], the figure is 49 ± 0.8%. On to `O=C(c1cc(O)c(O)c(O)c1)c1ccc(O)c(O)c1O` [Exifone, exifone], for which the inhibition at 100 µg/mL in test [1] (18 h) was 93 ± 1.4%. The “Congo red staining of amylin fibrils (red/green birefringence under polarized light)” value at human amylin fibrils was “marked decrease in Congo red staining”. On to `NC(=O)c1cc(O)c(O)c(O)c1` [Gallamide trihydrate, gallamide trihydrate], for which, in test [1] (18 h), the inhibition at 100 µg/mL came to 65 ± 12.3%. With `O=C(O)c1cc(O)c(O)c(O)c1` [Gallic acid, gallic acid], on Aβ 1-40 amyloid fibrils, the “Decrease in absorbance, %, at the Aβ 1-40:compound w/w ratio 1:1” value was determined as 32 ± 4.8%. Besides, the inhibition at 100 µg/mL in test [1] (setting [2]) was 57 ± 1.9%. As to `O=c1c(O)c(-c2cc(O)c(O)c(O)c2)oc2cc(O)cc(O)c12` [Myricetin, myricetin], in test [1] (18 h), the inhibition at 100 µg/mL came out at 94 ± 0.9%. In addition, the “Congo red staining of amylin fibrils (red/green birefringence under polarized light)” value on human amylin fibrils is on record as “marked decrease in Congo red staining”. As to `CCCOC(=O)c1cc(O)c(O)c(O)c1` [Propyl gallate, propyl gallate], the inhibition at 100 µg/mL in test [1] (setting [2]) was found to be 29 ± 2.8%. Same read-out and setting: as for `Oc1ccccc1O` [Pyrocatechol, pyrocatechol], the figure is 77 ± 2.6%. The same measure, in the same setting: for `Oc1cccc(O)c1O` [Pyrogallol, pyrogallol] the value was 89 ± 6.7%.

With `O=c1c(O)c(-c2ccc(O)c(O)c2)oc2cc(O)cc(O)c12` [Quercetin, quercetin], in test [1] (setting [2]), the “Fluorescence inhibition, %, at the Aβ 1-42:compound w/w ratio 1:1” value came out at 76 ± 0.6%. On to `O=C(O)[C@]1(O)C[C@@H](O)[C@@H](O)[C@H](O)C1` [Quinic acid, quinic acid], for which, in test [1] (setting [2]), the inhibition at 100 µg/mL was 31 ± 9%. In the case of `O=C(OC[C@H]1O[C@@H](OC(=O)c2cc(O)c(O)c(OC(=O)c3cc(O)c(O)c(O)c3)c2)[C@H](OC(=O)c2cc(O)c(O)c(OC(=O)c3cc(O)c(O)c(O)c3)c2)[C@@H](OC(=O)c2cc(O)c(O)c(OC(=O)c3cc(O)c(O)c(O)c3)c2)[C@@H]1OC(=O)c1cc(O)c(O)c(OC(=O)c2cc(O)c(O)c(O)c2)c1)c1cc(O)c(O)c(OC(=O)c2cc(O)c(O)c(O)c2)c1` [Tannic acid, tannic acid], in test [1] (18 h), the inhibition at 100 µg/mL worked out at 77 ± 1.3%. The “Congo red staining of amylin fibrils (red/green birefringence under polarized light)” value on human amylin fibrils is recorded as “marked decrease in Congo red staining”.
